Assay results taken from US10813941B2, “Methods and compounds for treating malaria” (THE GEORGE WASHINGTON UNIVERSITY, A CONGRESSIONALLY …, priority 2016, dated 2020).
Like-named read-outs stand apart in the source and are kept apart here.

Columns and labels:
P. falciparum 3D7 = assay: P. falciparum growth inhibition assay (PicoGreen, 72 h), strain 3D7; format: cell-based, Plasmodium falciparum
Source text: (§1) P. falciparum strains were obtained through the MR4 as part of the BEI Resources Repository, NIAID NIH (www.mr4.org): Plasmodium falciparum 3D7 (wild-type, WT), Plasmodium falciparum K1 (MRA-159; chloroquine and sulfadoxine-pyrimethamine resistant) deposited by D E Kyle, and Plasmodium falciparum IPC 5202 Battambang Cambodia 2011 (MRA-1240; chloroquine and artemisinin resistant) deposited by Didier Menard at the Institut Pasteur du Cambodge. The P. falciparum mutant containing increased levels of MEP pathway metabolites had1 (MRA-1257), and its compliment had1+PfHad1-GFP (MRA-1258), were generated in strain 3D7 as reported (BEI Resources; Guggisburg 2014). Parasites were cultured in a 2% suspension of human erythrocytes and RPMI 1640 (Sigma) medium supplemented with 27 mM sodium bicarbonate, 11 mM glucose, 5 mM HEPES, 1 mM sodium pyruvate, 0.37 mM hypoxanthine, 0.01 mM thymidine, 10 μg/ml gentamicin, and 0.5% albumax (Gibco) at 37° C., 5% O2/5% CO2/90% N2 atmosphere as previously described (Zhang 2011).
(§2) Asynchronous P. falciparum cultures were diluted to 1% parasitemia and were treated with FR900098 analogs at concentrations ranging from 0.25 ng/ml-100 μg/ml. Growth inhibition assays were performed in opaque 96-well plates at 100 μl culture volume. After 3 days, parasite growth was quantified by measuring DNA content using PicoGreen (Life Technologies), as described. Fluorescence was measured on a FLUOstar Omega microplate reader (BMG Labtech) at 485 nm excitation and 528 nm emission. Half maximal inhibitory concentration (IC50) values were calculated by nonlinear regression analysis using GraphPad Prism software. For isopentenyl pyrophosphate (IPP) (Echelon) rescue experiments, 250 μM IPP was added to the appropriate wells for the duration of the experiment.

P. falciparum 7G8 = assay: P. falciparum growth inhibition assay, strain 7G8; format: cell-based, Plasmodium falciparum; conditions: P. falciparum 7G8 (quinine, chloroquine, and pyrimethamine resistant), 72 h
Description: as §2

P. falciparum D6 = assay: P. falciparum growth inhibition assay, strain D6; format: cell-based, Plasmodium falciparum; conditions: P. falciparum D6 (mefloquine resistant), 72 h
Description: as §2

P. falciparum D10 = assay: P. falciparum growth inhibition assay, strain D10; format: cell-based, Plasmodium falciparum; conditions: P. falciparum D10 (mefloquine resistant), 72 h
Description: as §2

P. falciparum K1 = assay: P. falciparum growth inhibition assay, strain K1; format: cell-based, Plasmodium falciparum; conditions: P. falciparum K1 (chloroquine and sulfadoxine-pyrimethamine resistant), 72 h
Source text: as §1, with “Parasites were cultured in a 2% suspension of human erythrocytes and RPMI 1640 (Sigma) medium supplemented with 27 mM sodium bicarbonate, 11 mM glucose, 5 mM HEPES, 1 mM sodium pyruvate, 0.37 mM hypoxanthine, 0.01 mM thymidine, 10 μg/ml gentamicin, and 0.5% albumax (Gibco) at 37° C., 5% O2/5% CO2/90% N2 atmosphere as previously described (Zhang 2011).” left out
as §2, with “Growth inhibition assays were performed in opaque 96-well plates at 100 μl culture volume.” left out, “For isopentenyl pyrophosphate (IPP) (Echelon) rescue experiments, 250 μM IPP was added to the appropriate wells for the duration of the experiment.” left out

P. falciparum Battambang = assay: P. falciparum growth inhibition assay, strain Battambang; format: cell-based, Plasmodium falciparum; conditions: P. falciparum Battambang (chloroquine and artemisinin resistant), 72 h
Source text: as §1, with “Parasites were cultured in a 2% suspension of human erythrocytes and RPMI 1640 (Sigma) medium supplemented with 27 mM sodium bicarbonate, 11 mM glucose, 5 mM HEPES, 1 mM sodium pyruvate, 0.37 mM hypoxanthine, 0.01 mM thymidine, 10 μg/ml gentamicin, and 0.5% albumax (Gibco) at 37° C., 5% O2/5% CO2/90% N2 atmosphere as previously described (Zhang 2011).” left out
as §2, with “Growth inhibition assays were performed in opaque 96-well plates at 100 μl culture volume.” left out, “For isopentenyl pyrophosphate (IPP) (Echelon) rescue experiments, 250 μM IPP was added to the appropriate wells for the duration of the experiment.” left out

[1] = test system: P. falciparum had1 (PfHad1 loss-of-function strain); assay: microbe, parasite or virus in culture; format: cell-based, Plasmodium falciparum
Source text: as §1, §2

P. falciparum strain 3D7 = assay: IPP rescue of growth inhibition; format: cell-based, Plasmodium falciparum; conditions: 250 μM IPP; RCB-185 1.2 nM-590.5 nM
Description: as §2

[2] = cited from earlier work
[3] = mouse, oral administration; cited from earlier work
[4] = rat, oral administration; cited from earlier work
P. falciparum = conditions: cited from earlier work
[5] = test system: P. falciparum had1+HAD1-GFP; assay: P. falciparum growth inhibition assay, complemented strain had1+HAD1-GFP; format: cell-based, Plasmodium falciparum; conditions: had1 mutant supplied with WT copy of had1, FIG. 3 panel B
Source text: as §1, with “Parasites were cultured in a 2% suspension of human erythrocytes and RPMI 1640 (Sigma) medium supplemented with 27 mM sodium bicarbonate, 11 mM glucose, 5 mM HEPES, 1 mM sodium pyruvate, 0.37 mM hypoxanthine, 0.01 mM thymidine, 10 μg/ml gentamicin, and 0.5% albumax (Gibco) at 37° C., 5% O2/5% CO2/90% N2 atmosphere as previously described (Zhang 2011).” left out
as §2, with “Growth inhibition assays were performed in opaque 96-well plates at 100 μl culture volume.” left out, “For isopentenyl pyrophosphate (IPP) (Echelon) rescue experiments, 250 μM IPP was added to the appropriate wells for the duration of the experiment.” left out

[6] = test system: MEP pathway in P. falciparum strain 3D7; assay: MEP pathway metabolite levels by LC-MS/MS; format: cell-based, Plasmodium falciparum; conditions: for reduction in MEcPP levels: 10 h
Description: P. falciparum strain 3D7 was cultured at 37° C. in 30 ml volumes in 100 mm tissue culture dishes (Techno Plastic Products) at 4% hematocrit until >8% parasitemia. […] Cultures were then lysed with 5% saponin, the parasite pellets washed with 1× phosphate-buffered saline (PBS), and the pellets stored at −80° C. Samples were extracted via addition of 600 μl of ice-cold extraction solvent [chloroform, methanol, and acetonitrile (2:1:1, v/v/v)] and two liquid nitrogen-cooled 3.2 mm stainless steel beads, followed by homogenization in the Tissue-Lyser II instrument (Qiagen, Valencia, Calif.) at 20 Hz for 5 min in a cold sample rack. Ice-cold water (600 μl) was added, and samples were homogenized for an additional 5 min at 20 Hz. After centrifugation (14,000 rcf at 4° C. for 5 min), the polar upper phase was aspirated and lyophilized. Dried samples were dissolved in 100 μl water and analyzed by LC-MS/MS.
The 4000QTRAP LC-MS/MS system (AB Sciex) was used in multiple-reaction monitoring (MRM) mode using negative ionization. The detailed instrument configuration and compound-dependent parameters for isoprenoid precursors were as previously described (Zhang 2011). LC separation prior to MRM detection was achieved by ion pair reverse-phase chromatography as described previously, with 10 mM tributylammonium acetate (pH 5.1-5.5) used as the ion pair reagent and the following modifications: (1) RP-hydro 100 mm×2.0 mm, 2.5 μm high performance liquid chromatography column (Phenomenex), (2) flow rate of 0.14 ml/min, (3) solvent A of 10 mM tributylammonium acetate in 5% methanol, (4) binary LC gradient (20% solvent B (100% methanol) from 0 to 2.5 min, 30% B for 12.5 min, 80% B for 5 min, and column equilibration at for 5 min), and (5) autosampler injection volume of 20 μl. For DOXP and MEcPP metabolites, one-way ANOVA was used to test for significance (VassarStats). A t-test was used to test for significance between UNT and 1× RCB-185 CDP-ME levels (VassarStats).

[7] = test system: P. falciparum strain NF54 gametocytes; assay: Gametocyte assay (flow cytometry); format: cell-based, Plasmodium falciparum; conditions: 72 h, 5 μM to 0.001 μM
Description: The next day, the parasites were resuspended at 10% gametocytemia, and 2% hematocrit.
A 96-well plate was prepared with 2× concentration of RCB-185 ranging 10 μM to 0.002 μM in complete RPMI with 1% DMSO as well as a positive control, 65 nM epoxomicin, and a negative control, 1% DMSO. Percoll purified NF54 strain P. falciparum gametocytes were added to individual wells at 2% hematocrit and 10% parasitemia in a 1:1 dilution, resulting in a final 1% hematocrit and a two-fold dilution of RCB-185 for a final concentration range of 5 μM to 0.001 μM and a final 0.5% DMSO, 32.5 nM epoxomicin. The plate was gassed with 90% N2, 5% O2, 5% CO2 and incubated at 37° C. with compound for 72 h. Following incubation, cells were analyzed using flow cytomtetry as described below.
Cells were incubated at a final 0.1% hematocrit in 50 nM DiIC(1)5 with buffer containing 1.67 mg/ml glucose, 8 mg/mL NaCl, 8 mM Tris-Cl (pH 7.4) and incubated at 37° C. for 20-30 minutes prior to analysis on BD Accuri C6 flow cytometer. Uninfected RBCs and unstained P. falciparum infected RBCs were incubated with MitoProbe DiIC1(5) as controls to determine the threshold for MitoProbe DiIC1(5) (640 nm laser excitation and FL4 emission filter [675/25 nm]) positive, single, and intact cell populations. One-way ANOVA was used to test for significance between the three treatment groups (VassarStats).

P. berghei ANKA = assay: Mouse model of malaria, P. berghei asexual blood stages (luciferase); format: in vivo, Swiss Webster mice
Description: In vivo testing of RCB-185 against intraerythrocytic P. berghei parasites was performed by the Anti-Infectives Screening Core at NYU School of Medicine. Briefly, groups of 5-7 female Swiss Webster mice weighing 25-30 g were infected via intraperitoneal injection with 10^3 transgenic P. berghei ANKA that express a fusion GFP (mutant 3) and firefly luciferase (LucIAV) fusion under the control of the constitutive eeflaα promoter that is stably integrated into the 230p locus (PbGFP-Luccon). Two days post-infection, mice were treated by intraperitoneal injection with 50 mg/kg of the test compound RCB-185 or 20 mg/kg chloroquine or 2% methyl cellulose, 0.5% tween-80 as positive and vehicle controls, respectively. Treatment continued once a day for 5 days. At 7 days post-infection, mice were administered 2.5% isofluorane via a nose cone, and once anesthesized, were injected i.p. with 150 mg/kg of D-Luciferin Potassium-salt (Goldbio) dissolved in PBS. Mice were imaged 5-10 min after injection of luciferin with an IVIS 100 (Xenogen, Alameda, Calif.) and data acquisition and analysis were performed with Livinglmage (Xenogen) to quantify the level of infection. To test for significance between vehicle- and RCB-185-treated mice, a t-test was used (VassarStats).

[8] = Plasmodium falciparum, P. falciparum 3D7 (pan-sensitive, lab adapted), asynchronous, 72 h, mean±SEM

O=CN(O)CCCP(=O)(O)O [FSM, fosmidomycin, reference compound]
IC50 (P. falciparum 3D7; [8]): 1020 ± 77.8 nM
IC50 (P. falciparum 3D7; Plasmodium falciparum, parent strain 3D7 (WT) in had1 comparison, FIG. 3, mean±SEM): 1160 ± 158 nM
IC50 (P. falciparum 7G8; Plasmodium falciparum): 1240 ± 189 nM
IC50 (P. falciparum D6; Plasmodium falciparum): 1340 ± 247 nM
IC50 (P. falciparum D10; Plasmodium falciparum): 2180 ± 353 nM
IC50 (P. falciparum K1; Plasmodium falciparum): 837 ± 141 nM
IC50 (P. falciparum Battambang; Plasmodium falciparum): 863 ± 248 nM
IC50 ([1]; Plasmodium falciparum): 5350 ± 831 nM
rescue of growth by IPP (P. falciparum strain 3D7): rescues
serum half-life ([2]; in vivo): 1.87 h
bioavailability ([2]; oral dosing): 20-40%
LD50 [3]: > 11,000 mg/kg
LD50 [4]: > 11,000 mg/kg
tolerability in human patients (P. falciparum; human, in vivo): well-tolerated
parasite clearance (P. falciparum; mean±standard deviation): 44 ± 18 h

CC(=O)N(O)C/C=C/P(=O)(OCOC(=O)C(C)(C)C)OCOC(=O)C(C)(C)C [RCB-185]
fold lower IC50 than FSM (P. falciparum 3D7; 3D7, RCB-185 versus FSM): 50 fold
IC50 (P. falciparum 3D7; P. falciparum 3D7 (pan-sensitive, lab adapted), asynchronous, 72 h, mean±SEM): 18.3 ± 1.9 nM
IC50 (P. falciparum 3D7; parent strain 3D7 (WT) in had1 comparison, FIG. 3, mean±SEM): 19.9 ± 4.2 nM
IC50 (P. falciparum 7G8): 46.7 ± 10.9 nM
IC50 (P. falciparum D6): 37.6 ± 10 nM
IC50 (P. falciparum D10): 42.5 ± 11.5 nM
IC50 (P. falciparum K1): 31.9 ± 1 nM
IC50 (P. falciparum Battambang): 21.1 ± 1.8 nM
fold more resistant, had1 versus WT parasites ([1]; had1 IC50 versus WT IC50): 3.8 fold
IC50 ([1]; had1 mutant (FSM-resistant), FIG. 3, mean±SEM, read-out: IC50): 76.5 ± 18.5 nM
IC50 [5]: 26 ± 6.4 nM
rescue of growth by IPP (P. falciparum strain 3D7): supports growth of P. falciparum treated with RCB-185 at all concentrations tested
reduction in MEcPP levels ([6]; 1× the IC50 value of 18.3 nM): 3.0 fold
reduction in MEcPP levels ([6]; 7.5× the IC50 value of 18.3 nM): 5.7 fold
DOXP levels versus untreated ([6]; 10 h treatment, 1× or 7.5× IC50): no significant difference
CDP-ME levels ([6]; 10 h treatment, limit of detection 1.25 ng/mL): below the limits of detection
MEP levels ([6]; 10 h treatment, limit of detection 12.5 ng/ml): below the limits of detection
killing of gametocytes [7]: failure of RCB-185 to kill gametocytes
adverse effects in mice (P. berghei ANKA; 50 mg/kg i.p. once a day): no adverse effects were observed
drop in parasite load compared to vehicle (P. berghei ANKA; 50 mg/kg i.p. once a day, luciferase signal 7 days post-infection): > 3 log

C[C@@H]1CC[C@H]2[C@@H](C)C(=O)O[C@@H]3O[C@@]4(C)CC[C@@H]1[C@]32OO4 [artemisinin, reference compound]
IC50 (P. falciparum 3D7; [8]): 10.4 ± 1.6 nM

CCN(CC)CCCC(C)Nc1ccnc2cc(Cl)ccc12 (stereo not shown) [chloroquine, reference compound]
luciferase signal (parasite burden) (P. berghei ANKA; 20 mg/kg i.p. once a day, 7 days post-infection): below the limit of detection
